Target: T1, recombinant human MMP-13 (Homo sapiens, UniProt P45452)
T1 construct: made in house; host or cells: baculovirus (pBlueBac4 / Bac-N-Blue; virus made in Sf9), expressed in High-Five insect cells; culture supernatant used
Assay: Assay of MMP-13 inhibiting activity (fluorogenic peptide substrate)
Format: biochemical
Settings: Table 1; 37° C., 2 hours
Method in brief: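 Baculovirus-expressed human MMP-13 (High-Five cell supernatant) in pH 7.5 Tris buffer with 200 mM NaCl, 20 mM CaCl2, 0.1% Brij 35, 1 mM 2-mercaptoethanol; reaction started with 40 μM (stock) MOCAc-PLGL-A2pr(DNP)-AR-NH2, 2 h at 37 °C, stopped at pH 3.0. Fluorescence 330/405 nm; IC50 versus no-compound control.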

| Compound | IC50 |
| --- | --- |
| CC(=O)SC1CC(=O)N(Cc2ccc(Oc3ccccc3)cc2)C1=O (stereo not shown) [Example 5, 3-Acetylthio-1-(4-phenoxybenzyl)pyrrolidine-2,5-dione] | 0.03 µM |
| 3-Mercapto-1-(4-phenoxybenzylpyrrolidine-2,5-dione [Example 1] | 0.005 µM |

Same assay, conditions: Table 3; 37° C., 2 hours

| Compound | IC50 |
| --- | --- |
| O=C(O)CCSS[C@@H]1CC(=O)N(Cc2ccc(Oc3ccccc3)cc2)C1 [Example 85] | 0.46 µM |
| CCNC(=S)S[C@@H]1CC(=O)N(Cc2ccc(Oc3ccccc3)cc2)C1 [Example 77] | 0.0016 µM |
| CCOC(=O)S[C@@H]1CC(=O)N(Cc2ccc(Oc3ccccc3)cc2)C1 [Example 107, O-Ethyl S-[(3R)-5-oxo-1-(4-phenoxybenzyl)pyrrolidinyl]carbanothioate] | 0.03 µM |
| O=C(O)CCS[C@@H]1CC(=O)N(Cc2ccc(Oc3ccccc3)cc2)C1 [Example 93, 3-{[(3R)-5-Oxo-1-(4-phenoxybenzyl)pyrrolidinyl]sulfanyl}propanoic acid] | 6 µM |
| Ethyl 3-{[(3R)-5-oxo-1-(4-phenoxybenzyl)-2-pyrrolidinyl]disulfanyl}propanoate [Example 84] | 0.032 µM |
| O=C1OC(S[C@@H]2CC(=O)N(Cc3ccc(Oc4ccccc4)cc3)C2)c2ccccc21 (stereo partly drawn) [Example 99, (4R)-4-[(3-Oxo-1,3-dihydro-2-benzofuran-1-yl)sulfanyl]-1-(4-phenoxybenzyl)-2-pyrrolidinone] | 0.007 µM |
| CCCNC(=O)SC1CC(=O)N(Cc2ccc(Oc3ccccc3)cc2)C1 (stereo not drawn) [Example 52, S-[5-oxo-1-(4-phenoxybenzyl)-3-pyrrolidinyl]propylcarbamothioate] | 0.002 µM |

Other lines, results leading:

| IC50 | Compound |
| --- | --- |
| 0.002 µM | O=C(O)CNC(=O)S[C@@H]1CC(=O)N(Cc2ccc(Oc3ccccc3)cc2)C1 [Example 59, [({[(3R)-5-Oxo-1-(4-phenoxybenzyl)pyrrolidinyl]sulfanyl}carbonyl)amino]acetic acid] |
| 0.3 µM | O=C1CC(SCc2ccc(Br)cc2)CN1Cc1ccc(Oc2ccccc2)cc1 (stereo not shown) [Example 94, 4-[(4-Bromobenzyl)sulfanyl)-1-(4-phenoxybenzyl)-2-pyrrolidinone] |
| 0.0054 µM | CCOC(=O)CCC(=O)S[C@@H]1CC(=O)N(Cc2ccc(Oc3ccccc3)cc2)C1 [Example 74, Ethyl 4-oxo-4-{[(3R)-5-oxo-1-(4-phenoxybenzyl)pyrrolidinyl]sulfanyl}butanoate] |
| 0.02 µM | CN1C(=O)CC(S[C@@H]2CC(=O)N(Cc3ccc(Oc4ccccc4)cc3)C2)C1=O (stereo partly drawn) [Example 106, 1-Methyl-3-{[(3R)-5-oxo-1-(4-phenoxybenzyl)pyrrolidinyl]sulfanyl}-2,5-pyrrolidinedione] |

Same assay, conditions: Table 4; 37° C., 2 hours

| IC50 | Compound |
| --- | --- |
| 1 µM | CC(=O)SC1CC(=O)N(Cc2cccc(Oc3ccccc3)c2)C1 (stereo not shown) [Example 40, 4-Acetylthio-1-(3-phenoxybenzyl)pyrrolidin-2-one] |

Same assay, conditions: Table 5; 37° C., 2 hours

| IC50 | Compound |
| --- | --- |
| 0.02 µM | O=C1C[C@@H](S)[C@H](Cc2ccccc2)N1Cc1ccc(Oc2ccccc2)cc1 (relative stereo) [Example 182, trans-5-Benzyl-4-mercapto-1-(4-phenoxybenzyl)pyrrolidin-2-one] |
| 0.02 µM | CCCNC(=O)OC[C@H]1[C@H](SC(C)=O)CC(=O)N1Cc1ccc(Oc2ccccc2)cc1 (relative stereo) [Example 183, trans-4-Acetylthio-5-propylaminocarbonyloxymethyl-1-(4-phenoxybenzyl)pyrrolidin-2-one] |

Same assay, conditions: Table 7; 37° C., 2 hours

| IC50 | Compound |
| --- | --- |
| 0.009 µM | O=C1CC(SSC2CC(=O)N(Cc3ccc(Oc4ccccc4)cc3)C2=O)C(=O)N1Cc1ccc(Oc2ccccc2)cc1 (stereo not shown) [Example 12] |
| 0.1 µM | O=C1CC(SC2CC(=O)N(Cc3ccc(Oc4ccccc4)cc3)C2=O)C(=O)N1Cc1ccc(Oc2ccccc2)cc1 (stereo not shown) [Example 14] |

Same assay, conditions: Table 9; 37° C., 2 hours

| Compound | IC50 |
| --- | --- |
| O=C1C[C@@H](S)CN1Cc1ccc(Oc2ccc(Br)cc2)cc1 [Example 200, (R)-4-Mercapto-1-[4-(4′-bromophenoxy)benzyl]pyrrolidin-2-one] | 0.002 µM |
| COc1ccc(Oc2ccc(CN3CC(SC(C)=O)CC3=O)cc2)cc1 (stereo not shown) [Example 36, 4-Acetylthio-1-(4-(4′-methoxyphenoxy)benzyl)pyrrolidin-2-one] | 0.05 µM |

Further lines, results first:

| IC50 | Compound |
| --- | --- |
| 0.01 µM | O=C1CC(S)CN1Cc1ccc(Oc2ccc(OC(F)(F)F)cc2)cc1 (stereo not shown) [Example 141, 4-Mercapto-1-{4-[4′-(trifluoromethoxy)phenoxy]benzyl}pyrrolidin-2-one] |
| 4 µM | CS(=O)(=O)Nc1cc(CN2CC(S)CC2=O)ccc1Oc1ccccc1 (stereo not shown) [Example 153, 4-Mercapto-1-(3-methylsulfonylamino-4-phenoxybenzyl)pyrrolidin-2-one] |
| 0.025 µM | CCNC(=O)Nc1ccc(Oc2ccc(CN3CC(SC(C)=O)CC3=O)cc2)cc1 (stereo not shown) [Example 148, 4-Acetylthio-1-[4-(4′-ethylaminocarbonylaminophenoxy)benzyl]pyrrolidin-2-one] |
| 0.007 µM | CCc1ccc(Oc2ccc(CN3C[C@H](SC(C)=O)CC3=O)cc2)cc1 [Example 124, (R)-4-Acethylthio-1-[4-(4′-ethylphenoxy)benzyl]pyrrolidin-2-one] |
| 0.0012 µM | CS(=O)(=O)Nc1ccc(Oc2ccc(CN3CC(S)CC3=O)cc2)cc1 (stereo not shown) [Example 147, 4-Mercapto-1-[4-(4′-methylsulfonylaminophenoxy)benzyl]pyrrolidin-2-one] |
| 0.03 µM | CC(=O)SC1CC(=O)N(Cc2ccc(Oc3ccc(C(F)(F)F)cc3)cc2)C1 (stereo not shown) [Example 129, 4-Acetylthio-1-[4-(4′-(trifluoromethyl)phenoxy)benzyl]pyrrolidin-2-one] |
| 0.006 µM | CCOc1ccc(Oc2ccc(CN3CC(S)CC3=O)cc2)cc1 (stereo not shown) [Example 139, 4-Mercapto-1-[4-(4′-ethoxyphenoxy)benzyl]pyrrolidin-2-one] |
| 0.007 µM | Cc1ccc(Oc2ccc(CN3CC(S)CC3=O)cc2)cc1 (stereo not shown) [Example 128, 4-Mercapto-1-[4-(4′-methylphenoxy)benzyl]pyrrolidin-2-one] |
| 0.0089 µM | CC(=O)S[C@@H]1CC(=O)N(Cc2ccc(Oc3ccc(C)cc3)cc2)C1 [Example 123, (R)-4-Acethylthio-1-[4-(4′-methylphenoxy)benzyl]pyrrolidin-2-one] |

Same assay, conditions: Table 10; 37° C., 2 hours

| IC50 | Compound |
| --- | --- |
| 0.5 µM | CC(=O)SC1CC(=O)N(Cc2ccc(COc3ccccc3)cc2)C1 (stereo not shown) [Example 163, 4-Acetylthio-1-(4-phenoxymethylbenzyl)pyrrolidin-2-one] |
| > 10 µM | CC(=O)SC1CC(=O)N(Cc2ccc(S(=O)(=O)c3ccccc3)cc2)C1 (stereo not shown) [Example 173, 4-Acetylthio-1-(4-phenylsulfonylbenzyl)pyrrolidin-2-one] |
| 0.07 µM | O=C1CC(S)CN1Cc1ccc(CCc2ccccc2)cc1 (stereo not shown) [Example 168, 4-Mercapto-1-(4-phenethylbenzyl)pyrrolidin-2-one] |
| 0.09 µM | O=C1CC(S)CN1Cc1ccc(Cc2ccccc2)cc1 (stereo not shown) [Example 160, 4-Mercapto-1-(4-benzylbenzyl)pyrrolidin-2-one] |

Same assay, conditions: Table 13; 37° C., 2 hours

| IC50 | Compound |
| --- | --- |
| > 10 µM | CC(=O)SC1CCCN(Cc2ccc(Oc3ccccc3)cc2)C1=O (stereo not shown) [Example 46, 3-Acetylthio-1-(4-phenoxybenzyl)piperidin-2-one] |

Source: patent publication US6953789B2, “Thiol compounds, their production and use” (Takeda Chemical Industries, Ltd., priority 1998, dated 2005)
